Test results published in patent US4305872A, “Polypeptide derivatives” (priority 1979, dated 1981).

How the values were obtained:
Serum TSH level = experiment: 6 Point Parallel Line Assay, serum TSH level after inhibitor then TRH; format: in vivo; conditions: no inhibitor (saline injected)
Experimental: (§1) 6 Point Parallel Line Assay Design:
(§2) 3 sample, 3 standard samples
(§3) Responses expressed in (Ng/ml)
(§4) Animals challenged with peptide derivative dissolved in 0.85% NaCl.
(§5) Total Injection Volume: 0.25 ml
(§6) Anatomical Site of Injection: Jugular vein
(§7) Samples obtained by subjecting animal to ether anesthesia, and sacrificing animal.
(§8) Each animal was injected via jugular vein 0.25 ml of peptide derivative: to insure sample was injected into vein, the syringe plunger was gently retracted, if blood could be withdrawn, then the sample was injected. Following injection, the syringe was rinsed with blood and injected. 1/2-hour following injection of the peptide derivative, using the same procedure, a TRH dose-response curve was made using the same injection technique.
(§9) 0 time--injection of TRH derivative (80 ugm)
(§10) 1/2 hr.--injection of TRH (4, 40, and 80 ugm)
(§11) 1 hrs.--blood sample collected

[1] = system: TRH-Induced Release of Radioactive (125I) Iodide from the Thyroid; experiment: McKenzie Bioassay for TRH-Induced Release of Radioactive (125I) Iodide from the Thyroid; format: in vivo, Long-Evans male rats; conditions: worked Example; for (I-125) cpm/200 ul blood at THR: tail vein; for Δ cpm: net of saline control
Experimental: 16 Long-Evans male rats were maintained on an iodine deficient diet for 1 week. Each rat was then injected intraperitoneally (i.p.) with 20 μCi of radioactive (Na^125 I). Six hours before injection of the material to be tested, the animals were given 0.03% propylthioluracil (PTU) in their drinking water. This prevents the re-uptake of released ^125 I (iodoproteins such as mono- and diodo-tyrosines, T3 or T4) once they are released from the thyroid under the influence of TRH or TRH analogue. 24 hrs. after administration of the radioactive iodine (0.2 ml) 200 μl of blood was withdrawn from the tail vein of each rat, transferred quantitatively into a 12×75 mm test tube containing 1 ml of 0.9% saline and the ^125 I content counted by use of a Beckmann γ-ray spectrometer. One ml of TRH or TRH analogue dissolved in 0.9% NaCl (physiologic saline) was injected into the tail vein of each of four rats per dose considered (e.g. 0.4 μgm, 40 μgm, 80 μgm). 1 ml of 0.9% NaCl (physiologic saline) was injected also to each of four rats to serve as a control for stress-related influence (trauma from blood collecting procedure and anesthesia) on release of ^125 I from the thyroid gland. Once the saline control or designated dose of TRH or TRH analogue has been injected, blood samples (0.2 ml) are collected from the tail vein of each rat at 30 minutes, 1 hr, 2 hrs, and 3 hrs. and the ^125 I content evaluated as described above. Upon completion of the experiment, animals are kept for a 24 hr time period to observe any adverse toxicological effects. If they maintain their usual behavior (vital signs), it is assumed the compounds tested cause no overt physiological effects.
An increase in I-125 content above the basal level, as exemplified by the saline control, indicates a TRH induced release of TSH (thyrotropin stimulating hormone) which in turn causes release of I-125 from the thyroid. This type of response means the […] hormone physiologic mechanism (hypothalamo-pituitary-thyroid axis) is working properly, and the animals are suitable for testing. […] For each dose level considered, the radio-activity content of I-125 (cpm) per 200 μl of blood is evaluated at each time period and subtracted from the saline control radioactivity (I-125) content to obtain the Δ cpm released from thyroid. The net cpm released is therefore evaluated, rather than the absolute radio-activity for each time period and dose level.
To evaluate the effect of TRH analogues (TRH-CMK or TRH-DMK) on the TRH-TSH release of I-125 from the thyroid, each animal of a test group (4 animals) was injected with 1 ml of a given dose of the TRH analogue into the tail vein. […] Blood samples (0.2 ml) were then collected at various times (e.g. 1/2, 1 hr, 2 hrs, etc.) and evaluated for their I-125 content. […]

Serum Prolactin Level = experiment: 6 Point Parallel Line Assay, serum prolactin level after inhibitor then TRH; format: in vivo; conditions: no inhibitor (saline injected)
Experimental: as §1, §2, §3, §4, §5, §6, §7, §8, §9, §10, §11

[2] = system: guinea pig ileum (opiate receptor site); experiment: Guinea pig ileum (GPI) assay for enkephalin activity, electrically stimulated contractions; conditions: specificity controls; FIGS. 6-9

| Molecule | Serum TSH level (Serum TSH level; FIRST EXPERIMENT, TRH 4 μg) [ng/mL] | Serum TSH level (Serum TSH level; FIRST EXPERIMENT, TRH 40 μg) [ng/mL] | Serum TSH level (Serum TSH level; FIRST EXPERIMENT, TRH 80 μg) [ng/mL] | Serum TSH level (Serum TSH level; SECOND EXPERIMENT, TRH 4 μg) [ng/mL] | Serum TSH level (Serum TSH level; SECOND EXPERIMENT, TRH 40 μg) [ng/mL] | Serum TSH level (Serum TSH level; SECOND EXPERIMENT, TRH 80 μg) [ng/mL] | (I-125) cpm/200 ul blood at THR ([1]; 0.4 μgm TRH) [cpm/200 ul] | Δ cpm ([1]; 0.4 μgm TRH) | (I-125) cpm/200 ul blood at THR ([1]; 4 μgm TRH) [cpm/200 ul] | Δ cpm ([1]; 4 μgm TRH) | Serum Prolactin Level (Serum Prolactin Level; FIRST EXPERIMENT, TRH 4 μg) [ng/mL] | Serum Prolactin Level (Serum Prolactin Level; FIRST EXPERIMENT, TRH 40 μg) [ng/mL] | Serum Prolactin Level (Serum Prolactin Level; FIRST EXPERIMENT, TRH 80 μg) [ng/mL] | Serum Prolactin Level (Serum Prolactin Level; SECOND EXPERIMENT, TRH 4 μg) [ng/mL] | Serum Prolactin Level (Serum Prolactin Level; SECOND EXPERIMENT, TRH 40 μg) [ng/mL] | Serum Prolactin Level (Serum Prolactin Level; SECOND EXPERIMENT, TRH 80 μg) [ng/mL] | whether it effects a response on the GPI (neither = no response) [2] |
| --- | --- | --- | --- | --- | --- | --- | --- | --- | --- | --- | --- | --- | --- | --- | --- | --- | --- |
| NC(=O)[C@@H]1CCCN1C(=O)[C@H](Cc1c[nH]cn1)NC(=O)[C@@H]1CCC(=O)N1 [TRH, L-pyroglutamyl-L-histidyl-L-prolinamide] | 312 | 412 | 1139 | 167 | 612 | 839 | 261 | +141 cpm | 358 | +238 cpm | 61 | 76 | 216 | 46 | 150 | 181 | – |
| N-tosyl-phenylalanine chloromethyl ketone | – | – | – | – | – | – | – | – | – | – | – | – | – | – | – | – | neither |
